These results are taken from patent publication US20110244025A1, “MODIFIED OLIGORIBONUCLEOTIDE ANALOGS WITH ENHANCED IMMUNOSTIMULATORY ACTIVITY” (priority 2005, published 2011).

Data set [1] is described as follows: Stability against nuclease degradation in human serum (IP-RP-HPLC). Format: in vitro ADME. As for the experimental part:
Oligoribonucleotides R-1075 (SEQ ID NO:206), without triethylene glycol (teg) modification, and R-1907, with teg modification, were analysed using ion-pair reverse phase high pressure liquid chromatography (IP-RP-HPLC) following incubation in water or human serum for 1 to 60 minutes. While both of these oligoribonucleotides have fully phosphorothioate backbones, R-1075 is more than twice as long (18 nucleotides) as R-1907 (8 nucleotides). R-1075 incubated in water for 1 minute produced a single, sharp peak upon IP-RP-HPLC. […] R-1907 also produced a single, sharp peak following incubation in water for 1 minute. […] In fact, the peak height for R-1907 decreased by only about 50 percent following incubation in human serum for 60 minutes.

Data set [2] has as its system human peripheral blood mononuclear cells (PBMC). Briefly: IFN-α production by human PBMC (ELISA of culture supernatants). Type of data set: cell-based. To be noted: human PBMC from three donors, 24 hours, oligonucleotide 0.001-4 μM, in the presence of DOTAP (20 μg/ml); FIG. 1 and FIG. 2. As to the method: (§1) Human peripheral blood mononuclear cells (PBMC) were isolated from three donors and incubated for 24 hours in the presence of various test or control oligonucleotides or control conditions, in either the presence or absence of DOTAP (20 μg/ml). Oligonucleotides were added at different concentrations ranging from 0.001-4 μM. Culture supernatants were then collected and then analyzed by separate enzyme-linked immunosorbent assays (ELISAs) specific for human interferon alpha (IFN-α) and tumor necrosis factor alpha (TNF-α).
(§2) Control oligonucleotides and conditions included R-1012, rU*rU*rU*rU*rU*rU*rU*rU, where * represents phosphorothioate linkage and rU represents uridine; R-1075 (SEQ ID NO:206, fully phosphorothioate backbone), R-1362, rU*rU*rG*rU*rU*rG*rU*rU*rG*rU*rU*rG*rU*rU*rG*rU*rU*rG*rU*rU (SEQ ID NO:331), where * again represents phosphorothioate linkage, rU again represents uridine, and rG represents guanosine; CpG oligodeoxynucleotide 2395, T*C*G*T*C*G*T*T*T*T*C*G*G*C*G*C*G*C*G*C*C*G (SEQ ID NO:330), lipopolysaccharide (LPS), DOTAP, and no additive (w/o).
(§3) Test oligonucleotides included the following modifications of R-1012: R-1907, rU*rU*rU*rU*rU*rU*rU*rU-teg, where teg represents triethylene glycol; R-1908, rU*rU*rU*rU*rU*rU*rU*5SrU-teg, where 5S represents a linkage according to Formula II wherein X is O, X^1 is SH, X^2 is O, and X^3 is S; R-1909, rU*rU*rU*rU*rU*5SrU*rU*5SrU-teg; R-1910, rU*rU*rU*5SrU*rU*5SrU*rU*5SrU-teg; and R-1911, rU*5SrU*rU*5SrU*rU*5SrU*rU*5SrU-teg.
(In general: In an ELISA, binding on a coated surface is turned into a signal by an enzyme label.)

Data set [3] has the same test system. Briefly: TNF-α production by human PBMC (ELISA of culture supernatants). The conditions noted are these: human PBMC from three donors, 24 hours, oligonucleotide 0.001-4 μM, in the presence of DOTAP (20 μg/ml); FIG. 3 and FIG. 4. Type of data set: cell-based. As for the experimental part:
as §1, §2, §3

“Also recorded” adds a separate entry of the source. Read-outs that look alike come from different tables or passages of the source. Oligonucleotides are written 5' to 3', each unit as a sugar letter and its base; * is a phosphorothioate linkage, no mark a phosphodiester; rarer units and linkages stand in square brackets, end groups in braces. Plain capitals give the bases only. r = 2'-OH (RNA)

For “R-1075: control oligoribonucleotide, SEQ ID NO:206 (CCGUCUGUUGUGUGACUC), fully phosphorothioate backbone, 18 nucleotides, without teg modification (rC*rC*rG*rU*rC*rU*rG*rU*rU*rG*rU*rG*rU*rG*rA*rC*rU*rC) [reference compound]”, the “IP-RP-HPLC peak of the oligoribonucleotide after incubation in human serum” value in data set [1] (human serum, 1 minute, compared with incubation in water for 1 minute) is given as “essentially completely disappeared”.
Consider rU*rU*rU*rU*rU*rU*rU*rU-teg [R-1907], for which the IFN-α production result in data set [2] is “reduced IFN-α production compared to unmodified R-1012”. Besides, the TNF-α production entry in data set [3] is reported as “enhanced TNF-α production compared to unmodified R-1012; also recorded: significantly higher amounts of TNF-a compared to unmodified R-1012”. For the same substance, in data set [1], the “IP-RP-HPLC peak of the oligoribonucleotide after incubation in human serum” value is “persisted essentially unchanged” and the “decrease of IP-RP-HPLC peak height after incubation in human serum” value is listed as “about 50%”.
Consider rU*rU*rU*rU*rU*rU*rU*5SrU-teg [R-1908], for which the IFN-α production result in data set [2] was “increase in IFN-α induction compared to R-1907”. In data set [3], the TNF-α production entry is reported as “significantly higher amounts of TNF-a compared to unmodified R-1012”.
Regarding “rU*rU*rU*5SrU*rU*5SrU*rU*5SrU-teg [R-1910]”, the IFN-α production entry in data set [2] is on record as “did not induce significant amounts of IFN-α”. Further, the TNF-α production result in data set [3] is given as “significantly higher amounts of TNF-a compared to unmodified R-1012”.
In the same order, the values of “rU*5SrU*rU*5SrU*rU*5SrU*rU*5SrU-teg [R-1911]” are “did not induce significant amounts of IFN-α” and “significantly higher amounts of TNF-a compared to unmodified R-1012”.
For “rU*rU*rU*rU*rU*5SrU*rU*5SrU-teg [R-1909]”, in data set [2], the IFN-α production entry is “increase in IFN-α induction compared to R-1907”. Further, in data set [3], the TNF-α production result was “significantly higher amounts of TNF-a compared to unmodified R-1012”.
